# Test results as given in patent US20230218563A1, “METHODS FOR TREATING OR PREVENTING CHRONIC KIDNEY DISEASE” (Arthrosi Therapeutics, Inc., priority 2020, published 2023).
# Where “and” joins values, the source holds several entries; their conditions need not be identical. Identical values can stand only once. Like-named read-outs stand apart in the source and are kept apart here.
# How the values were obtained:
# [1] = Solubility of test articles in HBSS assay buffer; conditions: all tested concentrations, highest 10 μM
# Method: Before the experiment, the medium was removed and the cells were washed twice with 100 μL of HBSS without Cl^−. Uptake experiments were carried out at 37±1° C. in 50 μL of HBSS without Cl^−, pH 7.4 containing the probe substrate (20 μM uric acid) and the test article (TA) or solvent.
# [2] = Phase 1 single dose study, plasma pharmacokinetics in healthy adult males; format: in vivo, human; conditions: for AUC(0-t) / AUC(0-inf) / Tmax / Vd/F / half-life / Cmax: male, human, plasma, po; for Vd/F: read-out: Vz/F
# Method: The dose groups included Cohort 1 (15 mg or placebo, fasted, oral suspension), Cohort 2 (50 mg or placebo, fasted, suspension), Cohort 3 (100 mg or placebo, fasted, oral suspension), Cohort 4 (150 mg or placebo, fasted, oral suspension), Cohort 6 (50 mg or placebo, fed, oral suspension), and Cohort 7 (50 mg or placebo, fasted, oral capsule). […] An additional 8 subjects received placebo.
# The results are consistent with observation in animal testing and higher exposure of S-enantiomer was attributed to the conversion of the R-enantiomer in vivo.
# [3] = Phase 2a study, safety and tolerability in gout patients; format: in vivo, human; conditions: 50 mg once daily
# Excerpt: Urine samples were collected for assessment of uric acid excretion. Laboratory safety tests, vital signs, and electrocardiograms were collected throughout the study.
# serum uric acid (sUA) = test: Phase 1 multiple ascending dose study, pharmacodynamics (serum uric acid) in healthy adult males; format: in vivo, human; conditions: for reduction of sUA concentration at trough / reduction of sUA concentration, maximum: fasted, Day 10
# Excerpt: An additional 6 subjects received placebo.
# Steady-state sUA lowering effect was achieved after approximately 5 days.
# [4] = target: T1, human URAT1 uptake transporter (Homo sapiens, UniProt Q96S37); test: Inhibition of URAT1 mediated uric acid uptake in MDCKII cells stably expressing human URAT1; format: cell-based
# T1 construct: expressed in transfected cells
# T1 sequence (Q96S37 1-553): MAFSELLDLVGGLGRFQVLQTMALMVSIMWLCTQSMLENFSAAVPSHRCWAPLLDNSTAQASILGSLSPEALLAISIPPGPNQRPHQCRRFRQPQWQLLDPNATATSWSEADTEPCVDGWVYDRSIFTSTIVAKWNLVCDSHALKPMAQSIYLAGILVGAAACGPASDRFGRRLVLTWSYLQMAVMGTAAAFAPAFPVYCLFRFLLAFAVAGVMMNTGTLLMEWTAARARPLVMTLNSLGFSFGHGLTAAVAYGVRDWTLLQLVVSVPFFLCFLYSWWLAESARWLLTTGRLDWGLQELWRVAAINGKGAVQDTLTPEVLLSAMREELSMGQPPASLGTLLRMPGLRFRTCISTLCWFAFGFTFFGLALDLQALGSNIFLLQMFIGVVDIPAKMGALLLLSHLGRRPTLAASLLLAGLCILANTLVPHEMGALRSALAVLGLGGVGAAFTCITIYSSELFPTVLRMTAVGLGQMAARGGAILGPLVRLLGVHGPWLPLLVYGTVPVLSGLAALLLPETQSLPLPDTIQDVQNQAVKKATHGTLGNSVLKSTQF
# Method: Uptake experiments were performed using MDCKII cells stably expressing the human URAT1 uptake transporter. Cells were cultured at 37±1° C. in an atmosphere of 95:5 air:CO2 and were plated onto standard 96-well tissue culture plates at the cell number described in Table 1.
# Radiolabeled probe substrate transport was determined by measuring an aliquot (35 μL) from each well for liquid scintillation counting.
# [5] = 4-week toxicity study in Sprague-Dawley rats; format: in vivo
# Excerpt: On Day 29, surviving TS animals (all animals in study) were euthanized and subjected to a full gross necropsy, which included a macroscopic examination of the external surface of the body, all orifices, cranial cavity, external surface of the brain, the thoracic, abdominal and pelvic cavities and their viscera, cervical areas, carcass and genitalia. Organs were weighed as soon as possible from all main study animals at the scheduled necropsies. Tissues from Groups 1 and 5 animals at the terminal sacrifice, from animals found dead or moribund-sacrificed, and gross lesions from all animals, were embedded in paraffin, sectioned, stained with hematoxylin and eosin and examined microscopically by a board certified veterinary pathologist.
# [6] = 15 mg single oral, fasted, suspension (C1)
# [7] = 50 mg single oral, fasted, IR capsule (C7)
# [8] = 50 mg single oral, fasted, suspension (C2)
# [9] = 50 mg single oral, fed vs fasted
# [10] = 50 mg single oral, fed, suspension (C6)
# [11] = 100 mg single oral, fasted, suspension (C3)
# [12] = 150 mg single oral, fasted, suspension (C4)
# [13] = dose proportionality, 15 to 150 mg fasted
# [14] = rats, oral gavage 2, 5, 15 and 50 mg/kg/day, 28 days
smiles,measurement,setting,value
"[2H]c1c([2H])c([2H])c2c(C(=O)c3cc(Br)c(O)c(Br)c3)c(C(C)O)oc2c1[2H] (racemic) [Compound 1, (3,5-dibromo-4-hydroxyphenyl)(2-(1-hydroxyethyl)benzofuran-3-yl-4,5,6,7-d4)methanone]",solubility in HBSS buffer,[1],soluble
same,CL/F,[2]; [6],1.02 L/h
same,Cmax (total),[2]; [6],1060 ng/mL
same,CL/F,[2]; [7],1.01 L/h
same,Cmax (total),[2]; [7],3970 ng/mL
same,CL/F,[2]; [8],0.906 L/h
same,Cmax (total),[2]; [8],3330 ng/mL
same,change of Cmax in the fed state,[2]; [9],~33%
same,decrease of AUC with food,[2]; [9],approximately 13%
same,CL/F,[2]; [10],1.03 L/h
same,Cmax (total),[2]; [10],2210 ng/mL
same,Tmax (median),[2]; [10],8 h and 8.00 h
same,CL/F,[2]; [11],1.04 L/h
same,Cmax (total),[2]; [11],5510 ng/mL
same,CL/F,[2]; [12],0.944 L/h
same,Cmax (total),[2]; [12],8330 ng/mL
same,"Power model intercept, AUCinf (μg · h/mL)",[2]; [13],0.944
same,"Power model intercept, Cmax (μg/mL)",[2]; [13],0.0966
same,AUC(0-t),"[2]; 15 mg, 15 mg single oral, fasted, suspension (C1), read-out: AUC0-24 (total)",12100 ng·h/mL
same,AUC(0-inf),"[2]; 15 mg, 15 mg single oral, fasted, suspension (C1), read-out: AUCinf (total)",15000 ng·h/mL
same,Tmax,"[2]; 15 mg, 15 mg single oral, fasted, suspension (C1), read-out: Tmax (median)",3.5 h
same,Vd/F,"[2]; 15 mg, 15 mg single oral, fasted, suspension (C1)",14.1 L
same,half-life,"[2]; 15 mg, 15 mg single oral, fasted, suspension (C1), read-out: t1/2 (converted)",9.69 h
same,AUC(0-t),"[2]; 50 mg, 50 mg single oral, fasted, IR capsule (C7), read-out: AUC0-24 (total)",41900 ng·h/mL
same,AUC(0-inf),"[2]; 50 mg, 50 mg single oral, fasted, IR capsule (C7), read-out: AUCinf (total)",51300 ng·h/mL
same,Tmax,"[2]; 50 mg, 50 mg single oral, fasted, IR capsule (C7), read-out: Tmax (median)",1.75 h
same,Vd/F,"[2]; 50 mg, 50 mg single oral, fasted, IR capsule (C7)",14.9 L
same,half-life,"[2]; 50 mg, 50 mg single oral, fasted, IR capsule (C7), read-out: t1/2 (converted)",10.5 h
same,AUC(0-t),"[2]; 50 mg, 50 mg single oral, fasted, suspension (C2), read-out: AUC0-24 (total)",42600 ng·h/mL
same,AUC(0-inf),"[2]; 50 mg, 50 mg single oral, fasted, suspension (C2), read-out: AUCinf (total)",59600 ng·h/mL
same,Tmax,"[2]; 50 mg, 50 mg single oral, fasted, suspension (C2), read-out: Tmax (median)",3 h
same,Vd/F,"[2]; 50 mg, 50 mg single oral, fasted, suspension (C2)",16 L
same,half-life,"[2]; 50 mg, 50 mg single oral, fasted, suspension (C2), read-out: t1/2 (converted)",12.5 h
same,AUC(0-inf),"[2]; 50 mg, 50 mg single oral, fasted, read-out: Geometric Least Squares Mean AUCinf, Fasted",57400 ng·h/mL
same,AUC(0-t),"[2]; 50 mg, 50 mg single oral, fasted, read-out: Geometric Least Squares Mean AUClast, Fasted",57100 ng·h/mL
same,Cmax,"[2]; 50 mg, 50 mg single oral, fasted, read-out: Geometric Least Squares Mean Cmax, Fasted",3250 ng/mL
same,Cmax,"[2]; 50 mg, 50 mg single oral, fed (high-fat, high-calorie meal), read-out: Geometric Least Squares Mean Cmax, Fed",2170 ng/mL
same,AUC(0-t),"[2]; 50 mg, 50 mg single oral, fed, suspension (C6), read-out: AUC0-24 (total)",34000 ng·h/mL
same,AUC(0-inf),"[2]; 50 mg, 50 mg single oral, fed, suspension (C6), read-out: AUCinf (total)",51200 ng·h/mL
same,Tmax,"[2]; 50 mg, 50 mg single oral, fed, suspension (C6), read-out: Tmax (median)",8 h
same,Vd/F,"[2]; 50 mg, 50 mg single oral, fed, suspension (C6)",16.3 L
same,half-life,"[2]; 50 mg, 50 mg single oral, fed, suspension (C6), read-out: t1/2 (converted)",11.7 h
same,AUC(0-inf),"[2]; 50 mg, 50 mg single oral, fed, read-out: Geometric Least Squares Mean AUCinf, Fed",49900 ng·h/mL
same,AUC(0-t),"[2]; 50 mg, 50 mg single oral, fed, read-out: Geometric Least Squares Mean AUClast, Fed",49600 ng·h/mL
same,AUC(0-t),"[2]; 100 mg, 100 mg single oral, fasted, suspension (C3), read-out: AUC0-24 (total)",71000 ng·h/mL
same,AUC(0-inf),"[2]; 100 mg, 100 mg single oral, fasted, suspension (C3), read-out: AUCinf (total)",99700 ng·h/mL
same,Tmax,"[2]; 100 mg, 100 mg single oral, fasted, suspension (C3), read-out: Tmax (median)",4 h
same,Vd/F,"[2]; 100 mg, 100 mg single oral, fasted, suspension (C3)",18.6 L
same,half-life,"[2]; 100 mg, 100 mg single oral, fasted, suspension (C3), read-out: t1/2 (converted)",12.5 h
same,AUC(0-t),"[2]; 150 mg, 150 mg single oral, fasted, suspension (C4), read-out: AUC0-24 (total)",114000 ng·h/mL
same,AUC(0-inf),"[2]; 150 mg, 150 mg single oral, fasted, suspension (C4), read-out: AUCinf (total)",173000 ng·h/mL
same,Tmax,"[2]; 150 mg, 150 mg single oral, fasted, suspension (C4), read-out: Tmax (median)",4 h
same,Vd/F,"[2]; 150 mg, 150 mg single oral, fasted, suspension (C4)",15.5 L
same,half-life,"[2]; 150 mg, 150 mg single oral, fasted, suspension (C4), read-out: t1/2 (converted)",12 h
same,Tmax,"[2]; single oral dose, fasted conditions, read-out: median Tmax, range over doses",3 to 5 h
same,half-life,"[2]; single oral doses 15 to 150 mg, read-out: average terminal half-life",10 to 13 h
same,total plasma clearance,[2]; single oral doses 15 to 150 mg,approximately 1.0 L/hr
same,volume of distribution,[2]; single oral doses 15 to 150 mg,14 to 18 L
same,laboratory or ECG abnormalities,[3],no clinically significant laboratory or ECG abnormalities
same,tolerability,[3],well tolerated
same,reduction of sUA concentration at trough,serum uric acid (sUA); 25 mg oral capsules once daily,41%
same,"reduction of sUA concentration, maximum",serum uric acid (sUA); 25 mg oral capsules once daily,up to 44%
same,reduction of sUA concentration at trough,serum uric acid (sUA); 50 mg oral capsules once daily,58%
same,"reduction of sUA concentration, maximum",serum uric acid (sUA); 50 mg oral capsules once daily,up to 67%
same,reduction of sUA concentration at trough,serum uric acid (sUA); 75 mg oral capsules once daily,65%
same,"reduction of sUA concentration, maximum",serum uric acid (sUA); 75 mg oral capsules once daily,up to 69%
same,time to steady-state sUA lowering effect,"serum uric acid (sUA); once-daily 25, 50 or 75 mg",approximately 5 days
same,in vitro URAT1 potency compared with benzbromarone,[4],better in vitro URAT1 potency than benzbromarone
same,NOAEL at 28 days,"[5]; Sprague-Dawley, rat, in vivo, po",50 mg/kg
same,"NOAEL, human equivalent","[5]; rat, in vivo",500 mg
same,"dose with kidney weight increase, female","[5]; rats, 28 days oral",50 mg/kg/day
same,"dose with liver weight increase, female","[5]; rats, 28 days oral",≥ 15 mg/kg/day
same,"dose with liver weight increase, male","[5]; rats, 28 days oral",50 mg/kg/day
same,findings at high or mid-high dose after 4 week recovery period,"[5]; rats, 28 days oral then 4 week recovery",resolved
same,clinical signs,[5]; [14],No abnormal clinical signs
same,"effect on food consumption, body weight",[5]; [14],no effect
same,mortality,[5]; [14],No mortality
